Active and inactive are the calls of the source. The calls are words filed in the database; no cut-off is given here.
Assays:
Plutella xylostella [1] = test: Insecticidal activity against third-instar of Plutella xylostella (diamondback moth) on cabbage leaves assessed as mortality after 5 days; type: functional, organism-based
Plutella xylostella [2] = test: Insecticidal activity against larvae of Plutella xylostella (diamondback moth) on cabbage leaves after 5 days; type: functional, organism-based
Plutella xylostella [3] = test: Reduction of oviposition in adult Plutella xylostella (diamondback moth) in aluminium foil assessed as number of egg oviposited after 24 hr by two choice test; type: functional, organism-based
Plutella xylostella [4] = test: Reduction of oviposition in adult Plutella xylostella (diamondback moth) in cabbage leaves assessed as number of egg oviposited after 24 hr by two choice test; type: functional, organism-based
Plutella xylostella [5] = test: Reduction of oviposition in adult Plutella xylostella (diamondback moth) in aluminium foil assessed as number of egg oviposited after 24 hr by no choice test; type: functional, organism-based
Plutella xylostella [6] = test: Reduction of oviposition in adult Plutella xylostella (diamondback moth) in cabbage leaves assessed as number of egg oviposited after 24 hr by no choice test; type: functional, organism-based
Plutella xylostella [7] = test: Antifeedant activity against fourth-instar of Plutella xylostella (diamondback moth) on cabbage leaves assessed as leaf disks damage; type: functional
Plutella xylostella [8] = test: Antifeedant activity against second-instar of Plutella xylostella (diamondback moth) on cabbage leaves assessed as leaf disks damage; type: functional
Plutella xylostella [9] = test: Antifeedant activity against third-instar of Plutella xylostella (diamondback moth) on cabbage leaves assessed as leaf disks damage; type: functional
Plutella xylostella [10] = test: Antifeedant activity against neonates of Plutella xylostella (diamondback moth) on cabbage leaves assessed as leaf disks damage; type: functional
Plutella xylostella [11] = test: Antifeedant activity against larvae of Plutella xylostella (diamondback moth) on cabbage leaves assessed as diameter of larvae after 5 days; type: functional
Plutella xylostella [12] = test: Antifeedant activity against larvae of Plutella xylostella (diamondback moth) on cabbage leaves assessed as length of larvae after 5 days; type: functional
Plutella xylostella [13] = test: Antifeedant activity against larvae of Plutella xylostella (diamondback moth) on cabbage leaves assessed as weight of larvae after 5 days; type: functional
Plutella xylostella [14] = test: Insecticidal activity against Plutella xylostella (diamondback moth) eggs on cabbage leaves assessed as eggs developed to neonates after 5 days relative to control; type: functional
Plutella xylostella [15] = test: Insecticidal activity against third-instar of Plutella xylostella (diamondback moth) on cabbage leaves assessed as survival after 3 days; type: functional
Plutella xylostella [16] = test: Insecticidal activity against neonates of Plutella xylostella (diamondback moth) on cabbage leaves assessed as survival after 5 days; type: functional

Structure (SMILES) | Activity (Plutella xylostella [1]) | Activity (Plutella xylostella [2]) | Activity (Plutella xylostella [3]) | Activity (Plutella xylostella [4]) | Activity (Plutella xylostella [5]) | Activity (Plutella xylostella [6]) | Activity (Plutella xylostella [7]) | Activity (Plutella xylostella [8]) | Activity (Plutella xylostella [9]) | Activity (Plutella xylostella [10]) | Activity (Plutella xylostella [11]) | Activity (Plutella xylostella [12]) | Activity (Plutella xylostella [13]) | Activity (Plutella xylostella [14]) | Survival (Plutella xylostella [15]) | Survival (Plutella xylostella [16])
C/C=C(\C)C(=O)O[C@H]1C[C@@H](OC(C)=O)[C@@]2(C(=O)OC)CO[C@H]3[C@@H](O)[C@@](C)([C@]45O[C@@]4(C)[C@@H]4C[C@H]5O[C@@H]5OC=C[C@@]54O)[C@H]4[C@]1(CO[C@]4(O)C(=O)OC)[C@@H]32 (stereo in doubt; form 1) | Active | Active | Active | inactive | inactive | inactive |  |  |  |  |  |  |  |  |  | 
C/C=C(\C)C(=O)O[C@H]1C[C@@H](OC(C)=O)[C@@]2(C(=O)OC)CO[C@H]3[C@@H](O)[C@@](C)([C@]45O[C@@]4(C)[C@@H]4C[C@H]5O[C@@H]5OC=C[C@@]54O)[C@H]4[C@]1(CO[C@]4(O)C(=O)OC)[C@@H]32 (stereo in doubt; form 1) [AZADIRACHTIN A] |  |  |  |  |  |  | 10.1% | 2.1% | 5.1% | <=2% | 2 mm | 13.5 mm | 0.013 mg | 75.2% |  | 
C/C=C(\C)C(=O)O[C@H]1C[C@@H](OC(C)=O)[C@@]2(C(=O)OC)CO[C@H]3[C@@H](O)[C@@](C)([C@]45O[C@@]4(C)[C@@H]4C[C@H]5O[C@@H]5OC=C[C@@]54O)[C@H]4[C@]1(CO[C@]4(O)C(=O)OC)[C@@H]32 (stereo in doubt; form 2) | Active | Active | Active | inactive | inactive | inactive |  |  |  |  |  |  |  |  |  | 
C/C=C(\C)C(=O)O[C@H]1C[C@@H](OC(C)=O)[C@@]2(C(=O)OC)CO[C@H]3[C@@H](O)[C@@](C)([C@]45O[C@@]4(C)[C@@H]4C[C@H]5O[C@@H]5OC=C[C@@]54O)[C@H]4[C@]1(CO[C@]4(O)C(=O)OC)[C@@H]32 (stereo in doubt; form 2) [AZADIRACHTIN A] |  |  |  |  |  |  |  |  |  |  | 2.5 mm | 14.7 mm | 0.012 mg | 66.2% |  | 
C/C=C(\C)C(=O)O[C@H]1C[C@@H](OC(C)=O)[C@@]2(C(=O)OC)CO[C@H]3[C@@H](O)[C@@](C)([C@]45O[C@@]4(C)[C@@H]4C[C@H]5O[C@@H]5OC=C[C@@]54O)[C@H]4[C@]1(CO[C@]4(O)C(=O)OC)[C@@H]32 (stereo in doubt; form 3) | Active | Active | Active | inactive | inactive | inactive |  |  |  |  |  |  |  |  |  | 
C/C=C(\C)C(=O)O[C@H]1C[C@@H](OC(C)=O)[C@@]2(C(=O)OC)CO[C@H]3[C@@H](O)[C@@](C)([C@]45O[C@@]4(C)[C@@H]4C[C@H]5O[C@@H]5OC=C[C@@]54O)[C@H]4[C@]1(CO[C@]4(O)C(=O)OC)[C@@H]32 (stereo in doubt; form 3) [AZADIRACHTIN A] |  |  |  |  |  |  |  |  |  |  | 2.2 mm | 14.8 mm | 0.016 mg | 61.6% | <60% | 50%

— ChEMBL document CHEMBL3045891, “Effects of three neem-based insecticides on diamondback moth (lepidoptera: plutellidae)” (2003)
